Results: patent US20230089247A1, “NOVEL COMPOUNDS SUITABLE FOR THE TREATMENT OF DYSLIPIDEMIA” (ZYDUS LIFESCIENCES LIMITED, priority 2019, published 2023)

Target: PCSK9 (Homo sapiens, UniProt Q8NBP7)
Test: BODIPY-LDL uptake assay in HepG2 cells
Type: cell-based
Settings: 5 μg/ml PCSK9, BODIPY-LDL
Procedure, shortened: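 Compounds pre-incubated 60 min with 5 μg/ml PCSK9 (0.2% DMSO), then added to HepG2 cells for 16 h; 1 μg/ml BODIPY-LDL added in serum-free medium for 5 h. Fluorescence (Ex 485/Em 520 nm) normalized to protein; PCSK9-only wells = 0%, no-PCSK9 wells = 100% uptake, giving percent increase in LDL uptake.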

PCSK9, sequence (Q8NBP7 153-692): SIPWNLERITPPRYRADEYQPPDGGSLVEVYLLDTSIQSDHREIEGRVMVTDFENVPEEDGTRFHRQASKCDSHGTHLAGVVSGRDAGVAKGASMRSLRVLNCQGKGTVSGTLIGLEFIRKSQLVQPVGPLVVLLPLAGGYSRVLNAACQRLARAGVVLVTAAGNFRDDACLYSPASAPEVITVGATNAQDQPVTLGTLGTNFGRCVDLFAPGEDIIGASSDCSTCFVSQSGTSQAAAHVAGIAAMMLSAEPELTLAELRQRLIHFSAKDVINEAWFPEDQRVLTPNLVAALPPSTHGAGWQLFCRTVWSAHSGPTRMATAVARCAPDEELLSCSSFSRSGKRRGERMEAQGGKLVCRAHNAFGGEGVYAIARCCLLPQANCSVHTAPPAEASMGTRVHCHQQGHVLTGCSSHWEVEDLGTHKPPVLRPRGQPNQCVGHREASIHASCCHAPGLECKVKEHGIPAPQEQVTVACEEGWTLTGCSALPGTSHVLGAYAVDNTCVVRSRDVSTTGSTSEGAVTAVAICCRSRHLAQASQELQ

| SMILES | % increase in LDL Uptake (1 μM test compound) [%] | % increase in LDL Uptake (10 μM test compound) [%] | % increase in LDL Uptake (30 μM test compound) [%] |
| --- | --- | --- | --- |
| CC(C)COC1(c2ccc(C(=O)N3CC4CN(c5ccc(C(F)(F)F)cc5)CC4C3)cc2)COC1 (stereo not drawn) [Example 135, (4-(3-isobutoxyoxetan-3-yl)phenyl)(5-(4-(trifluoromethyl)phenyl)hexahydropyrrolo[3,4-c]pyrrol-2(1H)-yl)methanone] | 5 | 17 | 47 |
| CC(C)OC1(c2ccc(C(=O)N3CC4CN(c5ccc(C(F)(F)F)cc5)CC4C3)cc2)COC1 (stereo not drawn) [Example 136, (4-(3-isopropoxyoxetan-3-yl)phenyl)(5-(4-(trifluoromethyl)phenyl)hexahydropyrrolo[3,4-c]pyrrol-2(1H)-yl)methanone] | 11 | 12 | 14 |
| COCCOC1(c2ccc(C(=O)N3CC4CN(c5ccc(C(F)(F)F)cc5)CC4C3)cc2)COC1 (stereo not drawn) [Example 137, (4-(3-(2-methoxyethoxy)oxetan-3-yl)phenyl)(5-(4-(trifluoromethyl)phenyl)hexahydropyrrolo[3,4-c]pyrrol-2(1H)-yl)methanone] | 0 | 66 | 116 |
| O=C(c1ccc(C2(O)CCNCC2)cc1)N1CCC(c2ccc(C(F)(F)F)cc2)CC1 [Example 141, (4-(4-hydroxypiperidin-4-yl)phenyl)(4-(4-(trifluoromethyl)phenyl)piperidin-1-yl)methanone] | 0 | 0 | 28 |
| COC1(c2ccc(C(=O)N3CCC(c4ccc(C(F)(F)F)cc4)CC3)cc2)CCOCC1 [Example 143, (4-(4-methoxytetrahydro-2H-pyran-4-yl)phenyl)(4-(4-(trifluoromethyl)phenyl)piperidin-1-yl)methanone] | 0 | 41 | 28 |
| O=C(c1ccc(C2(O)CSC2)cc1)N1CCC(c2ccc(C(F)(F)F)cc2)CC1 [Example 145, (4-(3-hydroxythietan-3-yl)phenyl)(4-(4-(trifluoromethyl)phenyl)piperidin-1-yl)methanone] | 2 | 70 | 0 |
| O=C(c1ccc(C2(O)CSC2)cc1)N1CC2CN(c3ccc(C(F)(F)F)cc3)CC2C1 (stereo not drawn) [Example 146, (4-(3-hydroxythietan-3-yl)phenyl)(5-(4-(trifluoromethyl)phenyl)hexahydropyrrolo[3,4-c]pyrrol-2(1H)-yl)methanone] | 53 | 212 | 29 |
| CCOC1(c2ccc(C(=O)N3CCC(c4ccc(C(F)(F)F)cc4)CC3)cc2)CSC1 [Example 148, (4-(3-ethoxythietan-3-yl)phenyl)(4-(4-(trifluoromethyl)phenyl)piperidin-1-yl)methanone] | 20 | 3 | 11 |
| COC1(c2ccc(C(=O)N3CC4CN(c5ccc(C(F)(F)F)cc5)CC4C3)cc2)CSC1 (stereo not drawn) [Example 149, (4-(3-methoxythietan-3-yl)phenyl)(5-(4-(trifluoromethyl)phenyl)hexahydropyrrolo[3,4-c]pyrrol-2(1H)-yl)methanone] | 0 | 30 | 9 |
| CCOC1(c2ccc(C(=O)N3CC4CN(c5ccc(C(F)(F)F)cc5)CC4C3)cc2)CSC1 (stereo not drawn) [Example 150, (4-(3-ethoxythietan-3-yl)phenyl)(5-(4-(trifluoromethyl)phenyl)hexahydropyrrolo[3,4-c]pyrrol-2(1H)-yl)methanone] | 0 | 5 | 25 |
| CC(C)(C)OC(=O)N1CCC(O)(c2ccc(C(=O)N3CCC(c4ccc(C(F)(F)F)cc4)CC3)cc2)C1 (stereo not drawn) [Example 151, tert-butyl 3-hydroxy-3-(4-(4-(4-(trifluoromethyl)phenyl)piperidine-1-carbonyl)phenyl)pyrrolidine-1-carboxylate] | 34 | 0 | 0 |
| O=C(c1ccc(C2(O)CCNC2)cc1)N1CCC(c2ccc(C(F)(F)F)cc2)CC1 (stereo not drawn) [Example 152, (4-(3-hydroxypyrrolidin-3-yl)phenyl)(4-(4-(trifluoromethyl)phenyl)piperidin-1-yl)methanone] | 0 | 0 | 31 |
| COC1(c2ccc(C(=O)N3CCC(c4ccc(C(F)(F)F)cc4)CC3)cc2)CCNC1 (stereo not drawn) [Example 153, (4-(3-methoxypyrrolidin-3-yl)phenyl)(4-(4-(trifluoromethyl)phenyl)piperidin-1-yl)methanone] | 0 | 47 | 46 |
| O=C(c1ccc(C2(O)CNC2)cc1)N1CCC(c2ccc(C(F)(F)F)cc2)CC1 [Example 155, (4-(3-hydroxyazetidin-3-yl)phenyl)(4-(4-(trifluoromethyl)phenyl)piperidin-1-yl)methanone] | 0 | 0 | 58 |
| COC1(c2ccc(C(=O)N3CCC(c4ccc(C(F)(F)F)cc4)CC3)cc2)CCN(C(C)=O)CC1 [Example 158, 1-(4-methoxy-4-(4-(4-(4-(trifluoromethyl)phenyl)piperidine-1-carbonyl)phenyl)piperidin-1-yl)ethan-1-one] | 0 | 42 | 0 |
| CCOC1(c2ccc(C(=O)N3CCC(c4ccc(C(F)(F)F)cc4)CC3)cc2)CCN(C(=O)OC(C)(C)C)CC1 [Example 161, tert-butyl 4-ethoxy-4-(4-(4-(4-(trifluoromethyl)phenyl)piperidine-1-carbonyl)phenyl) piperidine-1-carboxylate] | 0 | 0 | 16 |
| O=C(c1ccc(C2(O)COC2)cc1)N1CCc2nc(-c3ccc(C(F)(F)F)cc3)sc2C1 [Example 175, (4-(3-hydroxyoxetan-3-yl)phenyl)(2-(4-(trifluoromethyl)phenyl)-6,7-dihydrothiazolo[5,4-c]pyridin-5(4H)-yl)methanone] | 17 | 0 | 0 |
| O=C(c1cccc(C2(O)COC2)c1)N1CCc2scc(-c3ccc(C(F)(F)F)cc3)c2C1 [Example 176, (3-(3-hydroxyoxetan-3-yl)phenyl)(3-(4-(trifluoromethyl)phenyl)-6,7-dihydrothieno[3,2-c]pyridin-5(4H)-yl)methanone] | 0 | 12 | 68 |
| CCOC1(c2cccc(C(=O)N3CC4CN(c5ccc(C(F)(F)F)cc5)CC4C3)c2)COC1 (stereo not drawn) [Example 178, (3-(3-ethoxyoxetan-3-yl)phenyl)(5-(4-(trifluoromethyl)phenyl)hexahydropyrrolo[3,4-c]pyrrol-2(1H)-yl)methanone] | 0 | 51 | 47 |
